Test results from PubChem BioAssay (NCI).
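GI50 is the concentration that inhibits growth by half. The concentration for full growth arrest is given as TGI.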

Legend:
Assay in all cases: growth of human tumour cells (NCI), 384-well format
HL-60(TB) leukemia = system: HL-60(TB) leukemia
NCI-H522 lung = system: NCI-H522 lung
SR leukemia = system: SR leukemia
UACC-62 melanoma = system: UACC-62 melanoma
HT29 colon = system: HT29 colon
SF-539 CNS = system: SF-539 CNS
TK-10 renal = system: TK-10 renal
MDA-MB-231 breast = system: MDA-MB-231 breast
786-0 renal = system: 786-0 renal
RXF 393 renal = system: RXF 393 renal
SK-MEL-5 melanoma = system: SK-MEL-5 melanoma
SW-620 colon = system: SW-620 colon
SF-295 CNS = system: SF-295 CNS
MCF7 breast = system: MCF7 breast
CAKI-1 renal = system: CAKI-1 renal
MOLT-4 leukemia = system: MOLT-4 leukemia
SNB-75 CNS = system: SNB-75 CNS
HS 578T breast = system: HS 578T breast
NCI/ADR-RES ovarian = system: NCI/ADR-RES ovarian
NCI-H226 lung = system: NCI-H226 lung
MDA-MB-468 breast = system: MDA-MB-468 breast
HOP-62 NSCLC = system: HOP-62 NSCLC
HCC-2998 colon = system: HCC-2998 colon
NCI-H322M lung = system: NCI-H322M lung
BT-549 breast = system: BT-549 breast
NCI-H23 lung = system: NCI-H23 lung
U251 glioblastoma = system: U251 glioblastoma
IGROV1 ovarian = system: IGROV1 ovarian
SK-MEL-2 melanoma = system: SK-MEL-2 melanoma
A498 renal = system: A498 renal
NCI-H460 NSCLC = system: NCI-H460 NSCLC
A549 NSCLC = system: A549 NSCLC
SK-OV-3 ovarian = system: SK-OV-3 ovarian
DU-145 prostate = system: DU-145 prostate
HOP-92 NSCLC = system: HOP-92 NSCLC
SK-MEL-28 melanoma = system: SK-MEL-28 melanoma
MDA-MB-435 melanoma = system: MDA-MB-435 melanoma
UACC-257 melanoma = system: UACC-257 melanoma
M14 melanoma = system: M14 melanoma
T-47D breast = system: T-47D breast
OVCAR-8 ovarian = system: OVCAR-8 ovarian
OVCAR-3 ovarian = system: OVCAR-3 ovarian
CCRF-CEM leukemia = system: CCRF-CEM leukemia
PC-3 prostate = system: PC-3 prostate
RPMI-8226 leukemia = system: RPMI-8226 leukemia
ACHN renal = system: ACHN renal
SN12C renal = system: SN12C renal
OVCAR-4 ovarian = system: OVCAR-4 ovarian
EKVX NSCLC = system: EKVX NSCLC
SNB-19 CNS = system: SNB-19 CNS
COLO 205 colon = system: COLO 205 colon
HCT-15 colon = system: HCT-15 colon
KM12 colon = system: KM12 colon
MALME-3M melanoma = system: MALME-3M melanoma
OVCAR-5 ovarian = system: OVCAR-5 ovarian
SF-268 CNS = system: SF-268 CNS

Work on `Nc1n[n+](=O)c2ccccc2n1O` yielded a GI50 (HL-60(TB) leukemia) of 20.2 µM, a TGI (HL-60(TB) leukemia) of 40.5 µM and a GI50 (NCI-H522 lung) of 11.9 µM. The TGI (NCI-H522 lung) was 44.1 µM, the GI50 (SR leukemia) was 4.04 µM and the TGI (SR leukemia) was 13.5 µM. The GI50 (UACC-62 melanoma) was 20.6 µM, the TGI (UACC-62 melanoma) was 59.9 µM and the GI50 (HT29 colon) was 69.7 µM. For the same compound, the TGI (HT29 colon) was > 100 µM, the GI50 (SF-539 CNS) was 58.3 µM and the TGI (SF-539 CNS) was > 100 µM. For the same compound, the GI50 (TK-10 renal) was 69.8 µM, the TGI (TK-10 renal) was > 100 µM and the GI50 (MDA-MB-231 breast) was 70 µM. For the same compound, the TGI (MDA-MB-231 breast) was > 100 µM, the GI50 (786-0 renal) was 59.8 µM and the TGI (786-0 renal) was > 100 µM. The GI50 (RXF 393 renal) was 36.8 µM, the TGI (RXF 393 renal) was > 100 µM and the GI50 (SK-MEL-5 melanoma) was 14.7 µM. For the same compound, the TGI (SK-MEL-5 melanoma) was 34.3 µM, the GI50 (SW-620 colon) was 72.5 µM and the TGI (SW-620 colon) was > 100 µM. For the same compound, the GI50 (SF-295 CNS) was 26.1 µM, the TGI (SF-295 CNS) was > 100 µM and the GI50 (MCF7 breast) was 57.6 µM. For the same compound, the TGI (MCF7 breast) was > 100 µM, the GI50 (CAKI-1 renal) was 36.2 µM and the TGI (CAKI-1 renal) was > 100 µM. The GI50 (MOLT-4 leukemia) was 12.3 µM, the TGI (MOLT-4 leukemia) was 24.8 µM and the GI50 (SNB-75 CNS) was 20 µM. For the same compound, the TGI (SNB-75 CNS) was 60.3 µM, the GI50 (HS 578T breast) was 20 µM and the TGI (HS 578T breast) was > 100 µM. For the same compound, the GI50 (NCI/ADR-RES ovarian) was 51.4 µM, the TGI (NCI/ADR-RES ovarian) was > 100 µM and the GI50 (NCI-H226 lung) was 39.4 µM. For the same compound, the TGI (NCI-H226 lung) was > 100 µM, the GI50 (MDA-MB-468 breast) was 6.96 µM and the TGI (MDA-MB-468 breast) was 23.1 µM. The GI50 (HOP-62 NSCLC) was 22.5 µM, the TGI (HOP-62 NSCLC) was 66.6 µM and the GI50 (HCC-2998 colon) was 35.8 µM. For the same compound, the TGI (HCC-2998 colon) was > 100 µM, the GI50 (NCI-H322M lung) was > 100 µM and the TGI (NCI-H322M lung) was > 100 µM. For the same compound, the GI50 (BT-549 breast) was 24.1 µM, the TGI (BT-549 breast) was 65.1 µM and the GI50 (NCI-H23 lung) was 18 µM. For the same compound, the TGI (NCI-H23 lung) was 46.5 µM, the GI50 (U251 glioblastoma) was 46.7 µM and the TGI (U251 glioblastoma) was > 100 µM. For the same compound, the GI50 (IGROV1 ovarian) was 36.7 µM, the TGI (IGROV1 ovarian) was > 100 µM and the GI50 (SK-MEL-2 melanoma) was 42.2 µM. For the same compound, the TGI (SK-MEL-2 melanoma) was 90.5 µM, the GI50 (A498 renal) was 38.7 µM and the TGI (A498 renal) was > 100 µM. For the same compound, the GI50 (NCI-H460 NSCLC) was 18.8 µM, the TGI (NCI-H460 NSCLC) was 61.6 µM and the GI50 (A549 NSCLC) was 47 µM. For the same compound, the TGI (A549 NSCLC) was > 100 µM, the GI50 (SK-OV-3 ovarian) was 17.7 µM and the TGI (SK-OV-3 ovarian) was 70.5 µM. The GI50 (DU-145 prostate) was 43.5 µM, the TGI (DU-145 prostate) was > 100 µM and the GI50 (HOP-92 NSCLC) was 20.3 µM. For the same compound, the TGI (HOP-92 NSCLC) was 65.5 µM, the GI50 (SK-MEL-28 melanoma) was > 100 µM and the TGI (SK-MEL-28 melanoma) was > 100 µM. The GI50 (MDA-MB-435 melanoma) was > 100 µM, the TGI (MDA-MB-435 melanoma) was > 100 µM and the GI50 (UACC-257 melanoma) was 68.2 µM. The TGI (UACC-257 melanoma) was > 100 µM, the GI50 (M14 melanoma) was 24.5 µM and the TGI (M14 melanoma) was 65.6 µM. The GI50 (T-47D breast) was 24.1 µM, the TGI (T-47D breast) was > 100 µM and the GI50 (OVCAR-8 ovarian) was 37.7 µM. For the same compound, the TGI (OVCAR-8 ovarian) was > 100 µM, the GI50 (OVCAR-3 ovarian) was 35.1 µM and the TGI (OVCAR-3 ovarian) was > 100 µM. It also gave a GI50 (CCRF-CEM leukemia) of 20.5 µM, a TGI (CCRF-CEM leukemia) of 47.5 µM and a GI50 (PC-3 prostate) of 46.4 µM. The TGI (PC-3 prostate) was > 100 µM, the GI50 (RPMI-8226 leukemia) was 13.3 µM and the TGI (RPMI-8226 leukemia) was 31.4 µM. The GI50 (ACHN renal) was 27.2 µM, the TGI (ACHN renal) was 69.8 µM and the GI50 (SN12C renal) was 22.3 µM. For the same compound, the TGI (SN12C renal) was > 100 µM, the GI50 (OVCAR-4 ovarian) was 24.5 µM and the TGI (OVCAR-4 ovarian) was 73 µM. The GI50 (EKVX NSCLC) was 33.1 µM, the TGI (EKVX NSCLC) was > 100 µM and the GI50 (SNB-19 CNS) was 48.2 µM. For the same compound, the TGI (SNB-19 CNS) was > 100 µM, the GI50 (COLO 205 colon) was 35.8 µM and the TGI (COLO 205 colon) was > 100 µM. The GI50 (HCT-15 colon) was 32 µM, the TGI (HCT-15 colon) was > 100 µM and the GI50 (KM12 colon) was 41.7 µM. For the same compound, the TGI (KM12 colon) was > 100 µM, the GI50 (MALME-3M melanoma) was 27.8 µM and the TGI (MALME-3M melanoma) was 81.4 µM. For the same compound, the GI50 (OVCAR-5 ovarian) was > 100 µM, the TGI (OVCAR-5 ovarian) was > 100 µM and the GI50 (SF-268 CNS) was 24.3 µM. It also gave a TGI (SF-268 CNS) of 73.5 µM.
